Where two headings read alike, the source gives them in different places.
What was measured:
[1] = tested on: P. falciparum (strain 3D7); assay: 72 h 3H-hypoxanthine incorporation assay, asexual blood stages; assay type: cell-based, Plasmodium falciparum; details: Plasmodium falciparum
K-562 = assay: antiproliferative activity on K-562 cells; assay type: cell-based; details: Homo sapiens, K562, 72 h
Procedure: (§1) Compounds were tested for their antiproliferative activity on HUVEC and K-562 cells and for cytotoxicity on HeLa cells using standard protocols. K-562 (DSM ACC 10), HUVEC (ATCC CRL-1730), and HeLa (DSM ACC 57) cells were cultured as described previously. To assay the antiproliferative and cytotoxic effect, procedures were carried out as described before. In brief, for each experiment with K-562 and HeLa ∼10,000 cells were seeded per well of the 96-well microplates. For the cytotoxicity assay, the HeLa cells were preincubated for 48 h without the test substances. Cells were incubated for 72 h at 37 °C in a humidified atmosphere and 5% CO2. Suspension cultures of K-562 in microplates were analysed by an electronic cell analyzer system CASY 1 (SCHÄRFE, Reutlingen, Germany). The monolayer of the HUVEC and HeLa cells were fixed by glutaraldehyde (MERCK) and stained with a 0.05% solution of methylene blue (SERVA). After gently washing, the stain was eluted by 0.2 ml of 0.33 N HCl in the wells. The optical densities were measured at 660 nm in a microplate reader. The calculations of the different values of GI50 and CC50 were performed with the software Magellan (TECAN).

[2] = cytotoxicity on HeLa cells; assay type: cell-based; details: human, HeLa cells
Procedure: as §1

HUVEC = assay: antiproliferative activity on HUVEC cells; assay type: cell-based; details: Homo sapiens, HUVEC, 72 h
Procedure: as §1

haem = assay: ESI-MS collision-induced dissociation of haem adducts; assay type: binding; details: 50 µM haem and 50 µM substrate; for DV50 (dissociation voltage at 50%) of haem adduct: ESI-CID, 20 V to 400 V; for Bottom plateau (adduct remaining at 400 V): fragmentor voltage 400 V
Procedure: Compound Molar Adduct DV50 Bottom Dissociation mass [Haem+S] (V) plateau Constant
Supplementary Table 7. ESI-MS-CID data (m/z, calculated DV50 = dissociation voltage at 50% and % bottom plateau) of the [haematin-drug]+ adducts and dissociation constants (KD, µM) of the haematin-drug complexes measured with absorption spectrophotometric titrations.
Conditions: 50 µM haem and 50 µM substrate in H2O/CH3CN (5/95) + 0.1% formic acid.
Stability responses of the haem substrate adduct were obtained via ESI-CID experiments.
Positive mode; fragmentor voltage from 20 V to 400 V with 20 V increments. […]
- 41/120 g), and complete dissolution was achieved using an ultrasonic bath. All solutions were protected from daylight to avoid any photochemical degradation. All the physiochemical measurements were carried out at 25.0(2) °C. […]
Electrospray mass spectrometric measurements stopping point
Electrospray mass spectra of the haem complexes were obtained with an Agilent Technologies 6120 quadrupole equipped with an electrospray (ESI) interface. For

[3] = 3D7, 72 h 3H-hypoxanthine incorporation, asexual blood stages, read-out: Antiplasmodial activity IC50 Pf (3D7)
[4] = 3D7, non-steroid-derived analogs, read-out: IC50 on P. falciparum 3D7 asexual blood stages

Structure (SMILES) | IC50 [1, 3] | GI50 (K-562) | CC50 at 72 h [2] | GI50 (HUVEC) | also measured
COc1ccc2c(c1)CCC1C2CC[C@@]2(C)C1C[C@@H](NCc1cc(Cl)ccc1O)[C@H]2O (stereo partly drawn) [5s] | 0.099 µM |  |  |  | 
COc1ccc2c(c1)CCC1C2CC[C@@]2(C)C1C[C@H](NCc1ccccc1O)[C@H]2O (stereo partly drawn) [6c] | 0.676 µM | 2.5 µM | 11.3 µM | 4.4 µM | 
COc1ccc2c(c1)CCC1C2CC[C@@]2(C)C1C[C@H](NCc1cc(C(C)(C)C)cc(C(C)(C)C)c1O)[C@H]2O (stereo partly drawn) [6w] | 1.62 µM |  |  |  | 
COc1ccc2c(c1)CCC1C2CC[C@@]2(C)C1C[C@@H](NCc1ccccc1O)[C@@H]2O (stereo partly drawn) [7c] | 0.12 µM | 2 µM | 10.1 µM | 1.2 µM | 
COc1ccc2c(c1)CCC1C2CC[C@@]2(C)C1C[C@@H](NCc1cc(Cl)ccc1O)[C@@H]2O (stereo partly drawn) [7s] | 0.055 µM |  |  |  | 
COc1ccc2c(c1)CCC1C2CC[C@@]2(C)C1C[C@H](/N=C/c1ccccc1O)[C@@H]2O (stereo partly drawn) [8b] | > 2.5 µM |  |  |  | 
COc1ccc2c(c1)CCC1C2CC[C@@]2(C)C1C[C@H](NCc1ccccc1O)[C@@H]2O (stereo partly drawn) [8c] | 0.224 µM | 0.5 µM | 5.9 µM | 2.5 µM | 
COc1ccc2c(c1)CCC1C2CC[C@]2(C)C1CC(NCc1ccccc1O)[C@@H]2O (stereo partly drawn) [9c] | 0.999 µM | 8.4 µM | 48.8 µM | 11.2 µM | 
COc1ccc2c(c1)CCC1C2CC[C@]2(C)C1C[C@@H](NCc1ccccc1O)[C@@H]2O (stereo partly drawn) [10c] | 0.084 µM | 2.5 µM | 11.5 µM | 2.9 µM | 
COc1ccc2c(c1)CCC1C2CC[C@]2(C)C1C[C@H](NCc1ccccc1O)[C@@H]2O (stereo partly drawn) [11c] | 0.141 µM | 0.1 µM | 6.4 µM | 22 µM | 
CC(C)CCC[C@@H](C)[C@H]1CCC2C3CCC4C[C@@H](O)[C@@H](O)[C@H](NCc5ccccc5O)[C@]4(C)C3CC[C@@]21C (stereo partly drawn) [12c] | 4.36 µM | 16.5 µM | 38 µM | 12.4 µM | 
Oc1ccccc1CNC1CCCC1 [15c] |  |  |  |  | IC50 [1, 4]: > 6 µM
Oc1ccccc1CNC1CCCCC1 [16c] |  |  |  |  | IC50 [1, 4]: > 6 µM
Oc1ccccc1CNC1CCCCCCC1 [17c] | 2 µM |  |  |  | IC50 [1, 4]: ~2 µM
Oc1ccccc1CNC12CC3CC(CC(C3)C1)C2 [18c] |  |  |  |  | IC50 [1, 4]: 4 µM
Oc1ccccc1CNc1ccccc1 [19c] |  |  |  |  | IC50 [1, 4]: > 15 µM
Oc1ccccc1/C=N/c1ccc2ccc3cccc4ccc1c2c34 [20b] | > 15 µM |  |  |  | 
Oc1cc2ccccc2cc1/C=N/c1ccc2ccc3cccc4ccc1c2c34 [20n] | > 13 µM |  |  |  | 
Oc1cc2ccccc2cc1CNc1ccc2ccc3cccc4ccc1c2c34 [20o] | > 13 µM |  |  |  | 
COc1ccc2c(c1)CCC1C2CC[C@@]2(C)C1CC[C@@H]2N(CCCn1ccnc1)CCc1ccccn1 (stereo partly drawn) [STS 948] | 0.675 µM | 6.6 µM | 18.3 µM | 7.2 µM | DV50 (dissociation voltage at 50%) of haem adduct (haem): 367 V; Bottom plateau (adduct remaining at 400 V) (haem): 36%
CCN(CC)Cc1cc(Nc2ccnc3cc(Cl)ccc23)ccc1O [amodiaquine, reference compound] |  |  |  |  | DV50 (dissociation voltage at 50%) of haem adduct (haem): 212 V; Bottom plateau (adduct remaining at 400 V) (haem): 7%
C=CC1=C(C)c2cc3[n-]c(cc4[n-]c(cc5nc(cc1n2)C(C)=C5C=C)c(C)c4CCC(=O)O)c(CCC(=O)O)c3C.O.[Fe+2] [hematin, reference compound] |  |  |  |  | DV50 (dissociation voltage at 50%) of haem adduct (haem): 329 V; Bottom plateau (adduct remaining at 400 V) (haem): ~ 28%
